{
  "source": "patent EP0025288A1",
  "about": "“Derivatives of monic acid, processes for their preparation, compositions containing them and their preparation” (priority 1979, dated 1981)",
  "key": {"[1]": {"tested_on": "M. suipneumoniae ATCC 25095", "test": "MIC, anti-mycoplasmal, Friis broth solidified with 0.9% agarose", "format": "cell-based", "details": "Mesomycoplasma hyopneumoniae, ATCC25095, 144 h, inoculum 10^3 to 10^5 C.F.U., 6 days incubation at 37°C, read-out: in vitro MIC"}, "M. suipneumoniae NB12": {"tested_on": "M. suipneumoniae NB12", "test": "MIC, anti-mycoplasmal, Friis broth solidified with 0.9% agarose", "format": "cell-based", "details": "Mesomycoplasma hyopneumoniae, 144 h, inoculum 10^3 to 10^5 C.F.U., 6 days incubation at 37°C, read-out: in vitro MIC"}, "[2]": {"tested_on": "Erysipelothrix rhusiopathiae NCTC 8163", "test": "MIC, veterinary bacteria", "format": "cell-based", "details": "NCTC8163, veterinary bacteria (Table 2), read-out: MIC"}, "E coli NCTC 10418": {"tested_on": "E coli NCTC 10418", "test": "MIC, veterinary bacteria", "format": "cell-based", "details": "veterinary bacteria (Table 2), read-out: MIC"}, "E coli E1": {"tested_on": "E coli E1", "test": "MIC, veterinary bacteria", "format": "cell-based", "details": "veterinary bacteria (Table 2), read-out: MIC"}, "S typhimurium S18": {"tested_on": "S typhimurium S18", "test": "MIC, veterinary bacteria", "format": "cell-based", "details": "veterinary bacteria (Table 2), read-out: MIC"}, "[3]": {"tested_on": "M. suipneumoniae J2206/183b", "test": "MIC, anti-mycoplasmal, Friis broth solidified with 0.9% agarose", "format": "cell-based", "details": "Mesomycoplasma hyopneumoniae, 144 h, inoculum 10^3 to 10^5 C.F.U., 6 days incubation at 37°C, read-out: in vitro MIC"}, "[4]": {"test": "Serum binding by ultrafiltration", "format": "in vitro ADME, pig", "details": "pig, serum, compounds at 8 mcg/ml, microbiological assay (B. subtilis ATCC 6633), read-out: % bound to pig serum (converted)", "procedure": "Serum binding was assessed by ultrafiltration of procine serum containing compounds at 8 mcg/ml, and through an Amicon CF50A ultrafiltration cone. Separation of ultrafiltrate was achieved by centrifugation."}, "M. pneumoniae ATCC 15492": {"tested_on": "M. pneumoniae ATCC 15492", "test": "MIC, anti-mycoplasmal, Friis broth solidified with 0.9% agarose", "format": "cell-based", "details": "Mycoplasmoides pneumoniae, ATCC15492, 144 h, inoculum 10^3 to 10^5 C.F.U., 6 days incubation at 37°C, read-out: in vitro MIC"}, "Strep agalactiae SPA1": {"tested_on": "Strep agalactiae SPA1", "test": "MIC, veterinary bacteria", "format": "cell-based", "details": "veterinary bacteria (Table 2), read-out: MIC"}, "M. gallisepticum S6": {"tested_on": "M. gallisepticum S6", "test": "MIC, anti-mycoplasmal, Friis broth solidified with 0.9% agarose", "format": "cell-based", "details": "Mycoplasmoides gallisepticum, 144 h, inoculum 10^3 to 10^5 C.F.U., 6 days incubation at 37°C, read-out: in vitro MIC"}, "M. suipneumoniae UCD 1": {"tested_on": "M. suipneumoniae UCD 1", "test": "MIC, anti-mycoplasmal, Friis broth solidified with 0.9% agarose", "format": "cell-based", "details": "Mesomycoplasma hyopneumoniae, UCD1, 144 h, inoculum 10^3 to 10^5 C.F.U., 6 days incubation at 37°C, read-out: in vitro MIC"}, "S dublin S7": {"tested_on": "S dublin S7", "test": "MIC, veterinary bacteria", "format": "cell-based", "details": "veterinary bacteria (Table 2), read-out: MIC"}, "[5]": {"tested_on": "Corynebacterium pyogenes CY1", "test": "MIC, veterinary bacteria", "format": "cell-based", "details": "veterinary bacteria (Table 2), read-out: MIC"}, "Past Haemolytica PA5": {"tested_on": "Past Haemolytica PA5", "test": "MIC, veterinary bacteria", "format": "cell-based", "details": "veterinary bacteria (Table 2), read-out: MIC"}, "M. suipneumoniae Str. 11": {"tested_on": "M. suipneumoniae Str. 11", "test": "MIC, anti-mycoplasmal, Friis broth solidified with 0.9% agarose", "format": "cell-based", "details": "Mesomycoplasma hyopneumoniae, 144 h, inoculum 10^3 to 10^5 C.F.U., 6 days incubation at 37°C, read-out: in vitro MIC"}, "[6]": {"tested_on": "M. suipneumoniae NCTC 10110", "test": "MIC, anti-mycoplasmal, Friis broth solidified with 0.9% agarose", "format": "cell-based", "details": "Mesomycoplasma hyopneumoniae, NCTC10110, 144 h, inoculum 10^3 to 10^5 C.F.U., 6 days incubation at 37°C, read-out: in vitro MIC"}, "M. dispar NCTC 10125": {"tested_on": "M. dispar NCTC 10125", "test": "MIC, anti-mycoplasmal, Friis broth solidified with 0.9% agarose", "format": "cell-based", "details": "144 h, inoculum 10^3 to 10^5 C.F.U., 6 days incubation at 37°C, read-out: in vitro MIC"}, "M. suipneumoniae JF 435": {"tested_on": "M. suipneumoniae JF 435", "test": "MIC, anti-mycoplasmal, Friis broth solidified with 0.9% agarose", "format": "cell-based", "details": "Mesomycoplasma hyopneumoniae, JF435, 144 h, inoculum 10^3 to 10^5 C.F.U., 6 days incubation at 37°C, read-out: in vitro MIC"}, "Strep uberis SPU1": {"tested_on": "Strep uberis SPU1", "test": "MIC, veterinary bacteria", "format": "cell-based", "details": "veterinary bacteria (Table 2), read-out: MIC"}, "M. suipneumoniae LABER": {"tested_on": "M. suipneumoniae LABER", "test": "MIC, anti-mycoplasmal, Friis broth solidified with 0.9% agarose", "format": "cell-based", "details": "Mesomycoplasma hyopneumoniae, 144 h, inoculum 10^3 to 10^5 C.F.U., 6 days incubation at 37°C, read-out: in vitro MIC"}, "[7]": {"tested_on": "Staph aureus B4 (pen resis)", "test": "MIC, veterinary bacteria", "format": "cell-based", "details": "Staphylococcus aureus, veterinary bacteria (Table 2), read-out: MIC"}, "Bord bronchisptica BO9": {"tested_on": "Bord bronchisptica BO9", "test": "MIC, veterinary bacteria", "format": "cell-based", "details": "veterinary bacteria (Table 2), read-out: MIC"}, "M. suipneumoniae TAM 6N": {"tested_on": "M. suipneumoniae TAM 6N", "test": "MIC, anti-mycoplasmal, Friis broth solidified with 0.9% agarose", "format": "cell-based", "details": "Mesomycoplasma hyopneumoniae, TAM6N, 144 h, inoculum 10^3 to 10^5 C.F.U., 6 days incubation at 37°C, read-out: in vitro MIC"}, "Bord bronchiseptica BO8": {"tested_on": "Bord bronchiseptica BO8", "test": "MIC, veterinary bacteria", "format": "cell-based", "details": "veterinary bacteria (Table 2), read-out: MIC"}, "M. hyorhinis ATCC 25021": {"tested_on": "M. hyorhinis ATCC 25021", "test": "MIC, anti-mycoplasmal, Friis broth solidified with 0.9% agarose", "format": "cell-based", "details": "Mesomycoplasma hyorhinis, ATCC25021, 144 h, inoculum 10^3 to 10^5 C.F.U., 6 days incubation at 37°C, read-out: in vitro MIC"}, "M. suipneumoniae MS 16": {"tested_on": "M. suipneumoniae MS 16", "test": "MIC, anti-mycoplasmal, Friis broth solidified with 0.9% agarose", "format": "cell-based", "details": "Mesomycoplasma hyopneumoniae, MS16, 144 h, inoculum 10^3 to 10^5 C.F.U., 6 days incubation at 37°C, read-out: in vitro MIC"}, "[8]": {"tested_on": "M. bovigenitalium ATCC 14173", "test": "MIC, anti-mycoplasmal, Friis broth solidified with 0.9% agarose", "format": "cell-based", "details": "144 h, inoculum 10^3 to 10^5 C.F.U., 6 days incubation at 37°C, read-out: in vitro MIC"}, "[9]": {"tested_on": "M. suipneumoniae PW/C/210", "test": "MIC, anti-mycoplasmal, Friis broth solidified with 0.9% agarose", "format": "cell-based", "details": "Mesomycoplasma hyopneumoniae, 144 h, inoculum 10^3 to 10^5 C.F.U., 6 days incubation at 37°C, read-out: in vitro MIC"}, "M. suipneumoniae HK(2)": {"tested_on": "M. suipneumoniae HK(2)", "test": "MIC, anti-mycoplasmal, Friis broth solidified with 0.9% agarose", "format": "cell-based", "details": "Mesomycoplasma hyopneumoniae, 144 h, inoculum 10^3 to 10^5 C.F.U., 6 days incubation at 37°C, read-out: in vitro MIC"}, "[10]": {"tested_on": "Staph aureus 152 (pen sens)", "test": "MIC, veterinary bacteria", "format": "cell-based", "details": "Staphylococcus aureus, veterinary bacteria (Table 2), read-out: MIC"}},
  "data": [
    {"smiles": "CC(=CC(=O)OCCCC(=O)c1ccccc1)CC1OCC(CC2OC2C(C)C(C)O)C(O)C1O", "note": "(stereo not shown) [Example 5, 4-Phenylbutan-4-onyl monate A]", "values": [
      {"measurement": "MIC", "setting": "[1]", "result": 0.25, "unit": "µg/mL"},
      {"measurement": "MIC", "setting": "M. suipneumoniae NB12", "result": 0.5, "unit": "µg/mL"},
      {"measurement": "MIC", "setting": "[2]", "result": 40, "unit": "µg/mL"},
      {"measurement": "MIC", "setting": "E coli NCTC 10418", "result": 80, "unit": "µg/mL"},
      {"measurement": "MIC", "setting": "E coli E1", "result": 80, "unit": "µg/mL"},
      {"measurement": "MIC", "setting": "S typhimurium S18", "result": 80, "unit": "µg/mL"},
      {"measurement": "MIC", "setting": "[3]", "result": 0.5, "unit": "µg/mL"},
      {"measurement": "fraction unbound", "setting": "[4]", "result": 0.036},
      {"measurement": "MIC", "setting": "M. pneumoniae ATCC 15492", "result": 1, "unit": "µg/mL"},
      {"measurement": "MIC", "setting": "Strep agalactiae SPA1", "result": 0.625, "unit": "µg/mL"},
      {"measurement": "MIC", "setting": "M. gallisepticum S6", "result": 1, "unit": "µg/mL"},
      {"measurement": "MIC", "setting": "M. suipneumoniae UCD 1", "result": 0.5, "unit": "µg/mL"},
      {"measurement": "MIC", "setting": "S dublin S7", "result": "> 80", "unit": "µg/mL"},
      {"measurement": "MIC", "setting": "[5]", "result": "> 80", "unit": "µg/mL"},
      {"measurement": "MIC", "setting": "Past Haemolytica PA5", "result": 10, "unit": "µg/mL"},
      {"measurement": "MIC", "setting": "M. suipneumoniae Str. 11", "result": 0.25, "unit": "µg/mL"},
      {"measurement": "MIC", "setting": "[6]", "result": 0.5, "unit": "µg/mL"},
      {"measurement": "MIC", "setting": "M. dispar NCTC 10125", "result": 0.1, "unit": "µg/mL"},
      {"measurement": "MIC", "setting": "M. suipneumoniae JF 435", "result": 0.5, "unit": "µg/mL"},
      {"measurement": "MIC", "setting": "Strep uberis SPU1", "result": 0.07, "unit": "µg/mL"},
      {"measurement": "MIC", "setting": "M. suipneumoniae LABER", "result": 0.25, "unit": "µg/mL"},
      {"measurement": "MIC", "setting": "[7]", "result": 0.156, "unit": "µg/mL"},
      {"measurement": "MIC", "setting": "Bord bronchisptica BO9", "result": 5, "unit": "µg/mL"},
      {"measurement": "MIC", "setting": "M. suipneumoniae TAM 6N", "result": 0.5, "unit": "µg/mL"},
      {"measurement": "MIC", "setting": "Bord bronchiseptica BO8", "result": 40, "unit": "µg/mL"},
      {"measurement": "MIC", "setting": "M. hyorhinis ATCC 25021", "result": 0.25, "unit": "µg/mL"},
      {"measurement": "MIC", "setting": "M. suipneumoniae MS 16", "result": 0.25, "unit": "µg/mL"},
      {"measurement": "MIC", "setting": "[8]", "result": 0.025, "unit": "µg/mL"},
      {"measurement": "MIC", "setting": "[9]", "result": 0.25, "unit": "µg/mL"},
      {"measurement": "MIC", "setting": "M. suipneumoniae HK(2)", "result": 0.5, "unit": "µg/mL"},
      {"measurement": "MIC", "setting": "[10]", "result": 0.156, "unit": "µg/mL"}
    ]}
  ]
}
